{"source": "patent US6632798B2", "about": "“Methods for inhibiting angiogenesis” (Antigen Biologicals Corporation, priority 2001, dated 2003)", "key": {"[1]": {"test_system": "blood vessels in the chick chorioallantoic membrane (CAM)", "assay": "chick chorioallantoic membrane (CAM) assay, injection into the yolk sac", "assay_type": "in vivo, chick embryo", "details": "for Number Nodes + Ends (mean ± S.E.): control 271 ± 25, P < 0.0001 vs control", "text": "Compounds suitable for use in the methods of the present invention can readily be identified using in vitro and in vivo screening assays. Such assays may screen for the ability of a particular compound to inhibit angiogenesis or the vascularization of endothelial cells in vitro and in vivo. For instance, the chick embryo chorioallantoic membrane (CAM) assay, which is described in more detail below, can be used to screen a given compound for its ability to inhibit vascularization. In the chorioallantoic membrane assay as performed in this invention, fertilized chick embryos are injected with a compound on day 3 or 4. The embryos are then allowed to develop for […] post injection upon which the shell is cracked and the chorioallantoic membrane is photographed. Based on the number of blood vessel nodes and ends present in the CAM the complexity of vascularization can be assessed. This assay can be used to assess the anti-angeogenic properties of the compounds in this invention. It will be readily apparent to those skilled in the art that the compounds in this invention can be administered alone, in the form of a pharmaceutically acceptable salt and/or in the form of a pharmaceutical composition. This example illustrates the anti-angiogenic properties of Oleuropein in the chick chorioallantoic membrane assay (CAM). The endpoint of the CAM assay was a quantitative determination of the number of branch points and ends of blood vessels in the chorioallantoic membrane. Such a quantitation would illustrate the complexity of the blood vasculature in the developing chorioallantoic membrane. The decrease in the complexity of the blood vasculature of the chorioallantoic membrane as a result of the application of Oleuropein indicates its anti-angiogenic properties. The CAM in the developing chick embryo is an excellent in vivo system for studying angiogenesis, because there is ongoing new blood vessel growth. The CAM assay involves the monotering of the blood vasculature of the developing chorioallantoic membrane of live chick embryos. Various CAM assay approaches have been developed. These include the culturing of live chick embryos in Petri dishes under special sterile conditions. Another approach has been to cut a window in the shell of fertilized eggs and directly apply the compound to be studied in the window using a filter paper. We used a modified approach to the CAM assay, which includes a less invasive method for introducing the compound Oleuropein. Fertilized chicken eggs where candled on the third day of development. The blood vasculature and the yolk were identified. A small 1 mm hole was made in the shell. A small gauge needle carrying 0.4 ml of Oleuropein diluted in saline/water was injected directly into the yolk sac. The hole was taped and the eggs were returned to the incubator for further development. After 3 days the eggs were removed and cracked in a white dish and the chorioallantoic membrane was photographed. Control eggs were injected with saline/water. Fresh fertile eggs were incubated for three days in a standard egg incubator. Temperature and humidity were kept constant at 100° F. and 65% respectively. On Day 3, eggs were […] using a police flash light. Embryo and yolk were identified. The surface of the shell was cleaned with an alcohol swab. The egg shell was pierced with a lancet making a 1 millimeter hole. A needle was used to withdraw 0.5 ml of yolk. A 0.5 ml injection was administered directly into the yolk sack. […] Experimental eggs were injected with a 0.1% and 1.0% concentration of Oleuropein. Control eggs were injected with an equivalent amount of water. After injection the hole was covered with a small piece of scotch tape and the eggs were returned to the incubator for further development. On day 3 post injection the eggs were removed from the incubator and […]. They were cracked gently using a butter knife over a white dish. Embryo and CAM were carefully layed out for observation and photography. […]"}, "[2]": {"test_system": "induced blood vasculature of the adult mouse ear", "assay": "adult mouse ear model, blood vessel growth induced by sodium hydroxide burn", "assay_type": "in vivo", "details": "0.025 grams in 0.25 ml PBS intraperitoneally once a day, 3 days before and 3 days after NaOH burn, FIG. 7", "text": "This example illustrates the anti-angiogenic properties of Oleuropein in the adult mouse ear model. The endpoint of the adult mouse ear model assay was a direct visualization of the number of branch points and ends of blood vessels. Such visualization would illustrate the complexity of the blood vasculature in the adult mouse ear. The decrease in the complexity of the induced blood vasculature of the adult mouse ear as a result of the application of Oleuropein would indicate its anti-angiogenic properties.\nIn the previous model (the CAM in the developing chick embryo), although an excellent in vivo system for studying angiogenesis, because there is ongoing new blood vessel growth in the growing embryo, we tested another model in assessing whether Oleuropein can inhibit induced blood vessel growth in an adult mammal. The model we chose to use was the adult mouse ear. The mouse ear is vascularized and is thin enough to be directly visualized by a light microscope. If a stimulus is applied to the adult mouse ear existing blood vessels are capable of sprouting new ones (angiogenesis). Using this model anti-angiogenic compounds can be tested for their effects. We applied a sodium hydroxide burn, which stimulated the existing blood vessels in the adult mouse ear to sprout new blood vessels. […]"}, "[3]": {"details": "Oleuropein treated eggs, FIG. 5"}}, "note": "Marks after values point to notes of the source that are not given here."}
{"smiles": "C/C=C1/[C@H](O[C@@H]2O[C@H](CO)[C@@H](O)[C@H](O)[C@H]2O)OC=C(C(=O)OC)[C@H]1CC(=O)OCCc1ccc(O)c(O)c1", "note": "[Oleuropein]", "values": [{"measurement": "effect on CAM vasculature (photographs)", "setting": "[1]; 0.93 μmol/egg, FIG. 2 vs control FIG. 3", "value": "potently inhibited CAM vasculature"}, {"measurement": "% Inhibition of blood vessel growth compared to control", "setting": "[1]; 0.93 μmole/egg", "value": 73, "unit": "%"}, {"measurement": "Number Nodes + Ends (mean ± S.E.)", "setting": "[1]; 0.93 μmole/egg into yolk sac of three-day-old chick embryos", "value": "72 ± 11^b"}, {"measurement": "effect on CAM vasculature (photographs)", "setting": "[1]; 9.3 μmol/egg, FIG. 1 vs control FIG. 3", "value": "number of blood vessels is greatly diminished and branching is less complex than in controls"}, {"measurement": "% Inhibition of blood vessel growth compared to control", "setting": "[1]; 9.3 μmole/egg", "value": 84, "unit": "%"}, {"measurement": "Number Nodes + Ends (mean ± S.E.)", "setting": "[1]; 9.3 μmole/egg into yolk sac of three-day-old chick embryos", "value": "44 ± 5.3^a"}, {"measurement": "CAM diameter, smaller than control CAM", "setting": "[1]; [3]", "value": "about 50%"}, {"measurement": "embryo size, smaller than untreated control embryos", "setting": "[1]; [3]", "value": "about 60%"}, {"measurement": "embryo viability", "setting": "[1]; higher dose of Oleuropein", "value": "did not effect embryo viability"}, {"measurement": "inhibition of induced blood vessel growth in the ear (photographs)", "setting": "[2]", "value": "potently inhibited existing blood vessels from sprouting"}]}
